Article PMC6472409, “Dishevelled-3 conformation dynamics analyzed by FRET-based biosensors reveals a key role of casein kinase 1” (Nature Communications, 2019)
Positions count from the first letter of the chain named. Where a SMILES comes first, the peptide text is derived from it. [ ]: non-standard residue; d: D form. pS = N[C@@H](COP(=O)(O)O)C(=O)O

Tests used:
Format in all cases: binding
PDZ wild type from DVL2 = target: T1, PDZ wild type from DVL2 (Homo sapiens, UniProt O14641); experiment: Surface plasmon resonance, PDZ wild type; conditions: for Response (R.U.): SPR, equilibrium
T1 construct: The PDZ domain of human DVL2 wild type (aa 265–361); His6-tag (N, cleaved yes); lipoyl domain (N, cleaved yes); made in house; host or cells: E. coli BL21 (DE3)
T1 sequence (O14641 265-361): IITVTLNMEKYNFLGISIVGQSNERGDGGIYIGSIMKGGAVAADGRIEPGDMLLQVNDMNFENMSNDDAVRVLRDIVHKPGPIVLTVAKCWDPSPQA
Protocol: (§1) The PDZ domain of human DVL2 wild type (aa 265–361) and phosphorylation-mimicking variant S286E + S329E were cloned into pET vector containing an N-terminal His6-tag and a lipoyl domain separated by a Tobacco Etch Virus (TEV) protease digestion site from the N-terminus of the inserts. Both proteins were expressed at high yields in E. coli BL21 (DE3) strain (New England Biolabs, #C2527I). For the NMR studies, ^13C- and ^15N-labeled proteins were prepared by growing cells in minimal medium supplemented with ^15NH4Cl (1 g/l) and ^13C6 glucose (2 g/l) as the sole nitrogen and carbon sources, respectively. Cells were grown at 37 °C to an OD600 of approximately 0.8 and protein expression was induced with 0.5 mM IPTG. Cells were lysed by sonication and centrifuged at 15,000g. Three purification steps were used for both proteins: Ni-NTA chromatography followed by overnight TEV cleavage to remove the N-terminal His6-tag and the lipoyl domain, ion exchange chromatography, and size exclusion chromatography. Finally, the untagged PDZ domain wild type or phosphorylation-mimicking variant was concentrated and exchanged to buffer for NMR or binding experiments containing 20 mM HEPES (pH 6.8) and 50 mM KCl. Human CK1ε (aa 1–294) was also cloned into a pET vector and purified using three purification steps as described for the PDZ domain.
(§2) SPR experiments were performed on a Biacore T200 instrument (GE Healthare). The wild type and phosphorylation-mimicking variant of PDZ from DVL2 were immobilized on carboxy-methylated dextran matrix (CM5 chip S Series) using amino coupling. Non-reacted groups were blocked by 1 M ethanolamine. […] The C-terminal DVL peptide (aa 698–716 from DVL3; pS700) was injected at increasing concentrations and long enough to reach steady state. SPR responses were measured and corrected for the response of the blank. Data points were collected from each binding sensogram before the end of the injection (equilibrium) and the dissociation constants were estimated by fitting the response at equilibrium versus the C-terminal peptide concentration using the following equation: Req = C*Rmax/(KD + C), where Req is the binding level in Response Units at different C-terminal peptide concentrations (C), Rmax the response at saturation (fitted), and KD the apparent dissociation constant (fitted).

[1] = target: T2, PDZ domain of human DVL2 wild type (aa 265–361) (Homo sapiens, UniProt O14641); experiment: NMR titration with DVL C-terminal peptide, PDZ wild type
T2 construct: The PDZ domain of human DVL2 wild type (aa 265–361); His6-tag (N, cleaved yes); lipoyl domain (N, cleaved yes); made in house; host or cells: E. coli BL21 (DE3)
T2 sequence (O14641 265-361): T1 sequence (O14641 265-361)
Protocol: as §1
(§3) A 4D HC(CC-TOCSY(CO))NH and a 4D ^13C, ^15N edited HMQC-NOESY-HSQC experiments were recorded at CEITEC Josef Dadok National NMR Centre on a 700 MHz Bruker Avance III spectrometers equipped with ^1H/^13C/^15N TCI cryogenic probe head with z-axis gradients. 4D spectra were processed with SSA package[59] and analyzed with SPARKY. Chemical shift assignments were obtained automatically using 4D-CHAINS[60] and checked manually. NMR titrations were performed in series of ^1H, ^15N HSQC spectra using 100 μM of ^15N-labeled protein (wild type or phosphorylation-mimicking variant) and increasing amounts of C-terminal DVL peptide (pS700) consisted of aa 698–716 from DVL3 (stock concentration of 800 μM). Steady-state^15N-^1H Nuclear Overhauser Effect values were measured under a steady-state condition with a 30 s interscan relaxation delay. Reference spectra and the spectra measured under steady-state conditions were measured in an interleaved manner.

[2] = target: T3, PDZ (S286E/S329E) from DVL2 (Homo sapiens, UniProt O14641, S286E/S329E); experiment: Surface plasmon resonance, PDZ phosphorylation-mimicking variant; conditions: for Response (R.U.): SPR, equilibrium
T3 construct: The PDZ domain of human DVL2 wild type (aa 265–361) and phosphorylation-mimicking variant S286E + S329E; His6-tag (N, cleaved yes); lipoyl domain (N, cleaved yes); made in house; host or cells: E. coli BL21 (DE3)
T3 sequence (O14641 265-361 S286E/S329E): T1 sequence (O14641 265-361) with S22E, S65E
Protocol: as §1, §2

[3] = target: T4, PDZ (S286E/S329E) of human DVL2 (Homo sapiens, UniProt O14641, S286E/S329E); experiment: NMR titration with DVL C-terminal peptide, PDZ phosphorylation-mimicking variant
T4 construct: The PDZ domain of human DVL2 wild type (aa 265–361) and phosphorylation-mimicking variant S286E + S329E; His6-tag (N, cleaved yes); lipoyl domain (N, cleaved yes); made in house; host or cells: E. coli BL21 (DE3)
T4 sequence (O14641 265-361 S286E/S329E): T1 sequence (O14641 265-361) with S22E, S65E
Protocol: as §1, §3

[4] = Biacore T200, PDZ immobilized on CM5 chip, steady-state fit, read-out: apparent KD (SPR, one-site binding model)

Kd (PDZ wild type from DVL2; [4]): 305 µM
Response (R.U.) (PDZ wild type from DVL2; pFRMA 3.125 uM): 3.399 R.U.
Response (R.U.) (PDZ wild type from DVL2; pFRMA 6.25 uM): 3.725 R.U.
Response (R.U.) (PDZ wild type from DVL2; pFRMA 12.5 uM): 4.287 R.U.
Response (R.U.) (PDZ wild type from DVL2; pFRMA 25 uM): 4.98 R.U.
Response (R.U.) (PDZ wild type from DVL2; pFRMA 50 uM): 6.694 R.U.
Response (R.U.) (PDZ wild type from DVL2; pFRMA 100 uM): 9.137 R.U.
Response (R.U.) (PDZ wild type from DVL2; pFRMA 200 uM): 14.3144 R.U.
Response (R.U.) (PDZ wild type from DVL2; pFRMA 400 uM): 24.5768 R.U.
Δδ (p.p.m.) F277 ([1]; pFRMA 50 uM): 0.028 p.p.m.
Δδ (p.p.m.) H342 ([1]; pFRMA 50 uM): 0.043 p.p.m.
Δδ (p.p.m.) K301 ([1]; pFRMA 50 uM): 0.035 p.p.m.
Δδ (p.p.m.) F277 ([1]; pFRMA 100 uM): 0.046 p.p.m.
Δδ (p.p.m.) H342 ([1]; pFRMA 100 uM): 0.07 p.p.m.
Δδ (p.p.m.) K301 ([1]; pFRMA 100 uM): 0.06 p.p.m.
Δδ (p.p.m.) F277 ([1]; pFRMA 200 uM): 0.066 p.p.m.
Δδ (p.p.m.) H342 ([1]; pFRMA 200 uM): 0.109 p.p.m.
Δδ (p.p.m.) K301 ([1]; pFRMA 200 uM): 0.092 p.p.m.
Δδ (p.p.m.) F277 ([1]; pFRMA 400 uM): 0.112 p.p.m.
Δδ (p.p.m.) H342 ([1]; pFRMA 400 uM): 0.174 p.p.m.
Δδ (p.p.m.) K301 ([1]; pFRMA 400 uM): 0.148 p.p.m.
Kd [2, 4]: 754 µM
Response (R.U.) ([2]; pFRMA 3.125 uM): 1.637 R.U.
Response (R.U.) ([2]; pFRMA 6.25 uM): 1.9305 R.U.
Response (R.U.) ([2]; pFRMA 12.5 uM): 2.181 R.U.
Response (R.U.) ([2]; pFRMA 25 uM): 2.621 R.U.
Response (R.U.) ([2]; pFRMA 50 uM): 3.732 R.U.
Response (R.U.) ([2]; pFRMA 100 uM): 5.135 R.U.
Response (R.U.) ([2]; pFRMA 200 uM): 8.677 R.U.
Response (R.U.) ([2]; pFRMA 400 uM): 16.554 R.U.
peptide affinity of phosphorylation-mimicking variant compared with PDZ wt (SPR) ([2]; apparent dissociation constants from SPR): two-fold lower peptide affinity
affinity of phosphorylation-mimicking variant compared with PDZ wt (NMR) ([3]; fast exchange peaks, quantitative analysis): two-fold weaker affinity
Δδ (p.p.m.) F277 ([3]; pFRMA 50 uM): 0.02 p.p.m.
Δδ (p.p.m.) H342 ([3]; pFRMA 50 uM): 0.032 p.p.m.
Δδ (p.p.m.) K301 ([3]; pFRMA 50 uM): 0.026 p.p.m.
Δδ (p.p.m.) F277 ([3]; pFRMA 100 uM): 0.03 p.p.m.
Δδ (p.p.m.) H342 ([3]; pFRMA 100 uM): 0.056 p.p.m.
Δδ (p.p.m.) K301 ([3]; pFRMA 100 uM): 0.044 p.p.m.
Δδ (p.p.m.) F277 ([3]; pFRMA 200 uM): 0.048 p.p.m.
Δδ (p.p.m.) H342 ([3]; pFRMA 200 uM): 0.093 p.p.m.
Δδ (p.p.m.) K301 ([3]; pFRMA 200 uM): 0.071 p.p.m.
Δδ (p.p.m.) F277 ([3]; pFRMA 400 uM): 0.084 p.p.m.
Δδ (p.p.m.) H342 ([3]; pFRMA 400 uM): 0.164 p.p.m.
Δδ (p.p.m.) K301 ([3]; pFRMA 400 uM): 0.128 p.p.m.
Structure (SMILES): CSCC[C@H](NC(=O)[C@@H](NC(=O)[C@H](CC(=O)O)NC(=O)[C@@H](NC(=O)[C@H](Cc1ccccc1)NC(=O)[C@H](Cc1ccccc1)NC(=O)[C@H](CCC(=O)O)NC(=O)[C@H](CO)NC(=O)[C@@H]1CCCN1C(=O)[C@H](CC(N)=O)NC(=O)CNC(=O)[C@H](CCSC)NC(=O)[C@H](C)NC(=O)[C@H](CCSC)NC(=O)[C@H](CCCNC(=N)N)NC(=O)[C@H](Cc1ccccc1)NC(=O)[C@H](COP(=O)(O)O)NC(=O)[C@H](CCC(N)=O)NC(=O)[C@@H](N)CCCNC(=N)N)C(C)C)C(C)C)C(=O)O [DVL C-terminal peptide] (H-RQ[pS]FRMAMGNPSEFFVDVM-OH)
